Measured values published in patent US20250340590A1, “PEPTIDE HAVING ANTI-INFLAMMATORY ACTIVITY AND USE THEREOF” (CAREGEN CO., LTD., priority 2021, published 2025).

What was measured:
[1] = test system: IFNγ; assay: IFNγ secretion by ELISA in TNFα-induced mouse splenocytes; type: cell-based; conditions: TNFα 20 nM, 24 hours
Description: Inflammation was induced by treating mouse splenocytes with the inflammatory cytokine TNFα, and the secretion amounts of the inflammatory cytokines IL-17, IL-1B, and IFNγ were confirmed. IL-17 corresponds to a pro-inflammatory cytokine, and the descriptions of IL-1β and IFNγ are the same as above.
Mouse splenocytes were dispensed into a 24-well plate at a concentration of 1×10^7 cells/well and cultured until the next day. The medium was replaced with serum-free medium, and after 4 hours, the cells were treated with TNFα and the peptide of the present invention and then cultured again for another 24 hours. In order to induce inflammation, the cells were treated with TNFα at 20 nM, and the peptide at 5 μM and 50 μM, respectively. The mouse splenocytes in the group in which inflammation was not induced due to untreatment with TNFα (NON); the negative control group in which the cells were treated with TNFα but not treated with the peptide (NC); and the group in which the cells were treated with TNFα along with the peptide of the present invention at the same concentration as above, respectively, were reacted as described above and the cell cultures were recovered. […]

[2] = test system: TNFα; assay: TNFα mRNA level by RT-PCR in TNFα-induced mouse splenocytes; type: cell-based; conditions: TNFα 20 nM, peptide at 5 μM and 50 μM, 3 hours, compared to group not treated with the peptide
Description: In order to further confirm the anti-inflammatory effect of the peptide treatment of the present invention in addition to the results of Experimental Example <3-1>, inflammation was induced by treating mouse splenocytes with TNFα, and the expression levels of inflammatory cytokines TNFα and IL-1β, and Cox2, which is an inflammation-inducing marker, genes were confirmed. In order to induce inflammation, the cells were treated with cytokine TNFα, and since TNFα corresponds to a signaling protein associated with inflammation, IL-1β corresponds to a cytokine that promotes inflammation, and Cox2 is a protein associated with inflammation, the degree of inflammation can be confirmed by measuring the expression levels of TNFα, Cox2, and IL-1β genes.
Mouse splenocytes were dispensed into a 24-well plate at a concentration of 1× 10^7 cells/well and cultured until the next day. The medium was replaced with serum-free medium, and after 3 hours, the cells were treated with TNFα and the peptide of the present invention and then cultured for another 3 hours. In order to induce inflammation, the cells were treated with TNFα at 20 nM, and the peptide at 5 μM and 50 μM, respectively. […] After quantifying the amount of isolated RNA, cDNA was synthesized using a cDNA synthesis kit (Intron, Korea), PCR was performed using a PCR premix (Intron, Korea) and primers for TNFα, Cox2, and IL-1B. […]

[3] = test system: iNos; assay: iNos protein level by Western blot in HaCaT cells induced with LPS, TGFβ and IL-23; type: cell-based, human; conditions: IL-23 and LPS, peptide at 5 μM and 50 μM, 24 hours, compared to group not treated with the peptide
Description: In order to further confirm the anti-inflammatory effect of the peptide treatment of the present invention in addition to the results of Experimental Example 1, HaCaT cells were treated with Th17 (type 17), which is an inflammation-inducing substance, and the expression levels of inflammation-inducing markers iNos and Cox2 were confirmed. As the inflammation-inducing substances, the cells were treated with LPS, TGFβ, and IL-23, and since iNos is an enzyme involved in the production of nitric oxide (NO), which is an inflammation-related protein induced by LPS, etc., it is possible to confirm whether inflammation is inhibited by measuring the expression levels of iNos and Cox2.
HaCaT cells were dispensed into a 24-well plate at a concentration of 3× 10^5 cells/well and cultured until the next day. The medium was replaced with serum-free medium, and after 4 hours, the cells were treated with TGFβ, IL-23, and LPS, which are Th17 type inflammation-inducing cytokines, and then with the peptide of the present invention and cultured again for another 24 hours. […] In order to perform Western blotting, the amounts of iNos and Cox2 proteins were measured using an anti-iNos antibody and an anti-Cox2 antibody (Cell Signaling Technology, USA). […]

TWNS [peptide of the present invention]
decreased: secretion amount of IFNγ ([1]; peptide at 5 μM) | secretion amount of IFNγ ([1]; peptide at 50 μM) | mRNA expression level of TNFα [2] | expression level of iNos protein [3]
